Results as given in patent publication US11203577B2, “Sulfonyl-structure-containing triazinone derivatives, their preparation methods and their uses in insect killing and/or bacterium killing” (Nankai University, priority 2017, dated 2021).
Where two headings read alike, the source gives them in different places.

Experiments:
Cucumber fusarium wilt = experiment: In vitro fungicidal activity, PDA colony diameter; type: cell-based; details: 96 h, 50 mg/kg, inhibition of colony diameter, read-out: Fungicidal activity (%) Cucumber fusarium wilt
[1] = system: Cercospora brown spot of peanut; experiment: In vitro fungicidal activity, PDA colony diameter; type: cell-based; details: 96 h, 50 mg/kg, inhibition of colony diameter, read-out: Fungicidal activity (%) Cercospora brown spot of peanut
Tomato early blight = experiment: In vitro fungicidal activity, PDA colony diameter; type: cell-based, Alternaria solani; details: 50 mg/kg, inhibition of colony diameter; read-out: Fungicidal activity (%) Tomato early blight
Wheat head blight = experiment: whole plant or invertebrate; type: cell-based; details: Triticum aestivum, read-out: Fungicidal activity (%) Wheat head blight
Rice bakanae disease = experiment: In vitro fungicidal activity, PDA colony diameter; type: cell-based; details: read-out: Fungicidal activity (%) Rice bakanae disease
Sclerotinia rot of colza = experiment: In vitro fungicidal activity, PDA colony diameter; type: cell-based; details: 96 h, 50 mg/kg, inhibition of colony diameter, read-out: Fungicidal activity (%) Sclerotinia rot of colza
Apple ring rot = experiment: In vitro fungicidal activity, PDA colony diameter; type: cell-based; details: inhibition of colony diameter
Summary of the method: (§1)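 Percent growth inhibition derived from colony diameter versus compound-free PDA control after 4 days' culture. Plates contained compound at 50 mg/kg; inoculum was a plug taken from the periphery of a 7-day PDA culture.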

[2] = system: Capsicum phytophthora blight; experiment: In vitro fungicidal activity, PDA colony diameter; type: cell-based; details: 96 h
Summary of the method: as §1

Wheat sheath blight = experiment: In vitro fungicidal activity, PDA colony diameter; type: cell-based; details: 50 mg/kg, inhibition of colony diameter; read-out: Fungicidal activity (%) Wheat sheath blight
[3] = system: Corn southern leaf blight; experiment: In vitro fungicidal activity, PDA colony diameter; type: cell-based; details: 50 mg/kg, inhibition of colony diameter; read-out: Fungicidal activity (%) Corn southern leaf blight
Watermelon anthracnose = experiment: In vitro fungicidal activity, PDA colony diameter; type: cell-based; details: read-out: Fungicidal activity (%) Watermelon anthracnose
Potato late blight = experiment: microbe, parasite or virus in culture; type: cell-based; details: Phytophthora infestans, 96 h, read-out: Fungicidal activity (%) Potato late blight
Rice sheath blight = experiment: In vitro fungicidal activity, PDA colony diameter; type: cell-based; details: 50 mg/kg, inhibition of colony diameter; read-out: Fungicidal activity (%) Rice sheath blight
Armyworms = experiment: Test of insecticidal activity against armyworms (leaf immersion); details: 600 mg/kg, 3-4 days
Maize borers = experiment: Test of insecticidal activity against maize borers (leaf immersion); details: read-out: Mortalities (%) Maize borers
[4] = system: mosquito larvae (Culer pipiens pallens); experiment: Test of insecticidal activity against mosquito larvae (checked after 24 h); details: 24 h, read-out: Mortalities (%) against mosquito larvae
[5] = system: bean aphides (Aphis laburni Kaltenbach); experiment: Test of insecticidal activity against aphides (leaf immersion, checked after 96 h)
Protocol: The insecticidal activity against aphides is tested through the following steps: the tested aphides are bean aphides (Aphis laburni Kaltenbach), a normal colony fed with broad bean leaves in a laboratory. The pesticide is weighed, 1 mL DMF is added to dissolve the pesticide, then two drops of emulsifier, Tween-20 are added, and distilled water is added in an appropriate amount; the mixture is stirred to a homogeneous state to prepare pesticide solution at required concentration (see the following table for the specific concentration). […] In a control group, only emulsifier and solvent are added into distilled water, and the mixture is stirred to a homogeneous state.

Cotton bollworms = experiment: Test of insecticidal activity against cotton bollworms (pesticide mixed into feedstuff); details: read-out: Mortalities (%) Cotton bollworms
Protocol: Method of testing against cotton bollworms: the pesticide is mixed into the feedstuff, i.e., 3 mL prepared solution is added into about 27 g freshly prepared feedstuff; thus, required concentration is obtained by diluting by 10 times.

[6] = Aphis, 96 h, read-out: Mortalities (%) against aphides
[7] = 50 mg/kg, inhibition of colony diameter

Row | SMILES | inhibition of growth at 50 mg/kg (Cucumber fusarium wilt) [%] | inhibition of growth at 50 mg/kg [1] [%] | inhibition at 50 mg/kg (Tomato early blight) [%] | inhibition at 50 mg/kg (Wheat head blight) [%] | inhibition of growth at 50 mg/kg (Sclerotinia rot of colza) [%] | inhibition at 50 mg/kg (Apple ring rot) [%] | inhibition of growth at 50 mg/kg [2] [%] | inhibition at 50 mg/kg (Wheat sheath blight) [%] | inhibition at 50 mg/kg [3] [%] | inhibition of growth at 50 mg/kg (Potato late blight) [%] | inhibition at 50 mg/kg (Rice sheath blight) [%] | Mortalities (%) Armyworms (Armyworms) [%] | mortality at 600 mg/kg (Maize borers) [%] | mortality at 10 mg/kg [4] [%] | mortality at 10 mg/kg [5, 6] [%] | mortality at 100 mg/kg [5, 6] [%] | mortality at 600 mg/kg [5, 6] [%] | mortality at 600 mg/kg (Cotton bollworms) [%] | inhibition at 50 mg/kg (Rice bakanae disease; [7]) [%] | inhibition at 50 mg/kg (Watermelon anthracnose; [7]) [%] | further results
1 | CC1=NNC(=O)N(NS(=O)(=O)c2cn(C)c(C)n2)C1 [Ia-32, 1,2-dimethyl-N-(6-methyl-3-oxo-2,3-dihydro-1,2,4-triazin-4(5H)-yl)-1H-imidazolyl-4-sulfonamide] | 8.8 | 26.1 | 16.1 | 12.5 | 15.8 | 43.1 | 9.4 | 30.9 | 7.7 | 18.8 | 10.5 | 5 | 0 | 20 | 30 | 100 | 100 | 0 |  |  | inhibition at 50 mg/kg (Rice bakanae disease): 18.8%; inhibition at 50 mg/kg (Watermelon anthracnose): 18.8%
2 | CC1=NNC(=O)N(NS(=O)(=O)c2ccc3c(c2)CCO3)C1 [Ia-33, N-(6-methyl-3-oxo-2,3-dihydro-1,2,4-triazin-4(5H)-yl)-2,3-dihydrobenzofuran-5-sulfonamide] | 5.1 | 11.5 | 15 | 33.3 | 12.5 | 9.5 | 19.2 | 9.4 | 11.1 | 19 | 10.7 | 5 | 0 | 85 |  | 40 | 90 | 0 | 3.7 | 0 | 
3 | CC1=NNC(=O)N(NS(=O)(=O)c2ccc3c(c2)OCCO3)C1 [Ia-34, N-(6-methyl-3-oxo-2,3-dihydro-1,2,4-triazin-4(5H)-yl)-2,3-dihydrobenzo[b][1,4]dioxin-6-sulfonamide] | 8.8 | 13 | 16.1 | 10.9 | 6.6 | 39.2 | 18.8 | 36.8 | 10.3 | 3.1 | 4.7 | 15 | 10 | 15 |  | 35 | 90 | 10 | 12.5 |  | inhibition at 50 mg/kg (Watermelon anthracnose): 18.8%
4 | CC1=NNC(=O)N(N(S(C)(=O)=O)S(C)(=O)=O)C1 [Ib-1, N-(6-methyl-3-oxo-2,3-dihydro-1,2,4-triazin-4(5H)-yl)-N-(methylsulfonyl)-methylsulfonylamide] | 0 | 15.8 | 23.8 | 6.7 | 36.7 | 20.7 | 26.5 | 56.8 | 12.5 | 29.6 | 34.9 | 15 | 10 | 35 | 100 | 100 | 100 | 30 | 44.4 | 20.8 | insecticidal activity against aphides compared with pymetrozine ([5]; 5 mg/kg): equivalent to the insecticidal activity of pymetrozine; mortality at 5 mg/kg [5, 6]: 20%
5 | CCS(=O)(=O)N(N1CC(C)=NNC1=O)S(=O)(=O)CC [Ib-2, n-(ethylsulfonyl)-N-(6-methyl-3-oxo-2,3-dihydro-1,2,4-triazin-4(5H)-yl)-ethylsulfonamide] | 10 | 15.8 | 33.3 | 13.3 | 48.3 | 58.6 | 38.8 | 61.4 | 16.7 | 18.5 | 27 | 5 | 5 | 15 |  |  | 85 | 25 | 27.8 | 12.5 | 
6 | CCCS(=O)(=O)N(N1CC(C)=NNC1=O)S(=O)(=O)CCC [Ib-3, N-(6-methyl-3-oxo-2,3-dihydro-1,2,4-triazin-4(5H)-yl)-N-(n-propylsulfonyl)propyl-1-sulfonamide] | 0 | 15.8 | 0 | 10 | 40 | 17.2 | 26.5 | 52.3 | 20.8 | 22.2 | 38.1 | 10 | 10 | 25 |  |  | 75 | 5 | 38.9 | 25 | 
7 | CCCCS(=O)(=O)N(N1CC(C)=NNC1=O)S(=O)(=O)CCCC [Ib-4, N-(n-butylsulfonyl)-N-(6-methyl-3-oxo-2,3-dihydro-1,2,4-triazin-4(5H)-yl)-butyl-1-sulfonamide] | 20 | 15.8 | 19 | 3.3 | 43.3 | 27.6 | 34.7 | 65.5 | 20.8 | 33.3 | 27 | 15 | 10 | 75 |  |  | 90 | 45 | 50 | 29.2 | 
8 | CC1=NNC(=O)N(N(S(=O)(=O)c2ccc(C)cc2)S(=O)(=O)c2ccc(C)cc2)C1 [Ib-6, 4-methyl-N-(6-methyl-3-oxo-2,3-dihydro-1,2,4-triazin-4(5H)-yl)-N-(4-methylbenzenesulfonyl)benzenesulfonamide] | 0 | 15.8 | 23.8 | 13.3 | 15 | 27.6 | 26.5 | 56.8 | 16.7 | 22.2 | 50.8 | 15 | 15 | 35 | 30 | 80 | 100 | 15 |  | 29.2 | inhibition at 50 mg/kg (Rice bakanae disease): 22.2%
